# Test results taken from patent US12415834B2, “GhR-binding peptide and composition comprising same” (priority 2021, dated 2025).
# Starred links: 1 amine or outer side, 2 acyl side, 3 side chain; linkers in the order of their positions; H or OH if unused. Positions of bridges follow the written chain, without caps; N, C: chain ends. Non-standard residues stand in square brackets, D forms with d. Residues, ends and D or L forms follow the SMILES beside them. Groups on a side chain read outwards from the residue. *: point of attachment. X3 = NC(=O)[C@H](CCCCN*)NC(=O)CC[C@H](NC(=O)CC[C@H](NC(=O)CCCCCCCCCCCCCCC(=O)O)C(=O)O)C(=O)O; Trp(1-CH2CO) = O=C([C@H](Cc1cn(CC(=O)[*:3])c2ccccc12)N[*:1])[*:2]; Trp(5-OMe) = COc1ccc2[nH]cc(C[C@H](N)C(=O)O)c2c1; Butanoyl(4-(4-I-phenyl)) = O=C(CCCc1ccc(I)cc1)*; Trp(5-OH) = N[C@@H](Cc1c[nH]c2ccc(O)cc12)C(=O)O; Phe(4-COOH) = N[C@@H](Cc1ccc(C(=O)O)cc1)C(=O)O; Piperazinyl(4-CH2COOH) = O=C(O)CN1CCN(*)CC1; X7 = O=C(O)CN1CCC(N[*:1])(C(=O)[*:2])CC1; C16 diacid = O=C(O)CCCCCCCCCCCCCCC(=O)*; γGlu = O=C(O)[C@H](CCC(=O)[*:2])N[*:1]; Hexanoyl(6-Ph) = O=C(CCCCCc1ccccc1)*; X9 = O=C(CCCc1ccc(-c2ccccc2)cc1)*; NMeK = CN[C@@H](CCCCN)C(=O)O; X16 = CN(CC(=O)[*:1])[*:2]; Aib = CC(C)(N)C(=O)O; CO = O=C([*:1])[*:2]
# Target: T1, Recombinant human GhR-Fc protein (Homo sapiens, UniProt P10912)
# T1 construct: purchased R&D Systems
# T1 sequence (P10912 with tags, fused parts or gaps limits assumed): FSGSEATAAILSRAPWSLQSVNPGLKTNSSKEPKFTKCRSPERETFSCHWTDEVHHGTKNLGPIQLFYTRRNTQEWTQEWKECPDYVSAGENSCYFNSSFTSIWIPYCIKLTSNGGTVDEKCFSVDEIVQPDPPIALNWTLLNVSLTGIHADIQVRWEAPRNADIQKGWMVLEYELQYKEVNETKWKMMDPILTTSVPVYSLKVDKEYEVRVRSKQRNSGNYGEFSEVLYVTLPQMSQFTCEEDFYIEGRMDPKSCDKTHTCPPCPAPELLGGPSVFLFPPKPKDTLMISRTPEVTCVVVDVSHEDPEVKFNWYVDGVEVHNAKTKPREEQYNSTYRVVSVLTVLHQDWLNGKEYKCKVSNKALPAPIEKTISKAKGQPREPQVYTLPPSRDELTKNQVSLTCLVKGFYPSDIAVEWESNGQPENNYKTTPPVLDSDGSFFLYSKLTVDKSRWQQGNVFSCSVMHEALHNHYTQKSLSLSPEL
# Test: SPR binding assay (Biacore T200, single-cycle kinetics) of peptides against immobilized human GhR-Fc
# Details: not given
# Procedure: SPR assay was performed using Biacore T200 (cytiva: Former GE Healthcare). After the equilibration of Series S Sensor Chip CM5 (produced by cytiva: Former GE Healthcare) with Running Buffer (HBS-EP with 1% (v/v) DMSO), an EDC/NHS mixture was injected at a flow rate of 10 μL/min for 7 minutes to thereby activate the functional groups on sensor chip. Recombinant human GhR-Fc protein (R&D Systems) in 10 mM Acetate (pH 4.0) was injected immobilized to at a flow rate of 5 μL/min. It took 7 minutes to immobilize the GhR on the substrate surfaces of the sensor chip. Then Ethanolamine was injected at a flow rate of 10 μL/min for 7 minutes. 1M Ethanolamine (aq.) was injected at a flow rate of 10 μL/min for 420 seconds for capping.
# Using these Peptide Samples, kinetics of peptides against human GhR-Fc protein were measured. The method adopted for sample measurement was a single-cycle kinetics method. The analysis was conducted using the evaluation software provided with Biacore T200. A DMSO correction curve obtained by solvent correction measurements was applied for the analysis. Kinetics fitting was done on the difference data obtained by subtracting the baseline data from sample measurement data. KD values were calculated based on the association rate constant (ka) and dissociation rate constant (kd). […]
row,SMILES,Kd [nM]
1,COc1ccc2[nH]cc(C[C@@H]3NC(=O)[C@H](CC(N)=O)NC(=O)[C@H](CO)NC(=O)[C@H](C(C)C)NC(=O)[C@H](C(C)C)NC(=O)[C@H](CCCCNC(=O)CC[C@H](NC(=O)CCCc4ccc(-c5ccccc5)cc4)C(=O)O)N(C)C(=O)[C@H](Cc4ccc(O)cc4)NC(=O)CSC[C@@H](C(=O)NCC(=O)N4CCC[C@H]4C(=O)N[C@H](CO)C(=O)N[C@H](CO)C(=O)N[C@H](CO)C(N)=O)NC(=O)[C@H](C(C)C)NC(=O)C(C)(C)NC(=O)[C@H](Cc4c[nH]c5ccc(O)cc45)NC(=O)[C@H](CCCCN)NC(=O)[C@H](Cc4ccc(C(=O)O)cc4)NC3=O)c2c1 [Compound 56] ({CH2CO}-Y[NMeK]([γGlu-X9])VVSN[Trp(5-OMe)][Phe(4-COOH)]K[Trp(5-OH)][Aib]VCGP[dS][dS][dS]-NH2; thioether N-13),2.87

# Same assay, conditions: SPR, hGhR; Table 1 bicyclic peptides; KD calculated from ka and kd; read-out: KD
row,SMILES,Kd [nM]
1,CC(C)[C@@H]1NC(=O)[C@H](C(C)C)NC(=O)[C@@H]2CCCCNC(=O)CN(C)C(=O)Cn3cc(c4ccccc43)C[C@H](NC(=O)[C@H](CC(N)=O)NC(=O)[C@H](CO)NC1=O)C(=O)N[C@@H](Cc1ccc(O)cc1)C(=O)N[C@@H](CCCCN)C(=O)N[C@@H](Cc1c[nH]c3ccc(O)cc13)C(=O)NC(C)(C)C(=O)N[C@@H](C(C)C)C(=O)N[C@H](C(=O)NCC(N)=O)CSCC(=O)N[C@@H](Cc1ccc(O)cc1)C(=O)N2C [Compound 3] ({CH2CO}-Y[NMeK]VVSN[Trp(1-CH2CO)]YK[Trp(5-OH)][Aib]VCG-NH2; linker 2-7 via X16; thioether N-13),1.71
2,CC(C)[C@@H]1NC(=O)[C@H](C(C)C)NC(=O)[C@@H]2CCCCNC(=O)Cn3cc(c4ccccc43)C[C@H](NC(=O)[C@H](CC(N)=O)NC(=O)[C@H](CO)NC1=O)C(=O)N[C@@H](Cc1ccc(O)cc1)C(=O)N[C@@H](CCCCNC(=O)N1CCN(CC(=O)O)CC1)C(=O)N[C@@H](Cc1c[nH]c3ccc(O)cc13)C(=O)NC(C)(C)C(=O)N[C@@H](C(C)C)C(=O)N[C@H](C(=O)NCCCC[C@H](NC(=O)CC[C@H](NC(=O)CC[C@H](NC(=O)CCCCCCCCCCCCCCC(=O)O)C(=O)O)C(=O)O)C(N)=O)CSCC(=O)N[C@@H](Cc1ccc(O)cc1)C(=O)N2C [Compound 27] ({CH2CO}-Y[NMeK]VVSN[Trp(1-CH2CO)]YK([CO-Piperazinyl(4-CH2COOH)])[Trp(5-OH)][Aib]VC-X3; lactam 2-7; thioether N-13),1.79
3,CC(C)[C@@H]1NC(=O)[C@H](C(C)C)NC(=O)[C@@H]2CCCCNC(=O)Cn3cc(c4ccccc43)C[C@H](NC(=O)[C@H](CC(N)=O)NC(=O)[C@H](CO)NC1=O)C(=O)N[C@@H](Cc1ccc(O)cc1)C(=O)N[C@@H](CCCCN)C(=O)N[C@@H](Cc1c[nH]c3ccc(O)cc13)C(=O)NC1(CCN(CC(=O)O)CC1)C(=O)N[C@@H](C(C)C)C(=O)N[C@H](C(=O)NCCCC[C@H](NC(=O)CC[C@H](NC(=O)CC[C@H](NC(=O)CCCCCCCCCCCCCCC(=O)O)C(=O)O)C(=O)O)C(N)=O)CSCC(=O)N[C@@H](Cc1ccc(O)cc1)C(=O)N2C [Compound 29] ({CH2CO}-Y[NMeK]VVSN[Trp(1-CH2CO)]YK[Trp(5-OH)][X7]VC-X3; lactam 2-7; thioether N-13),1.57

# The remaining lines, values ahead:
row,Kd [nM],SMILES
1,2.26,CC(C)[C@@H]1NC(=O)[C@H](C(C)C)NC(=O)[C@@H]2CCCCNC(=O)Cn3cc(c4ccccc43)C[C@H](NC(=O)[C@H](CC(N)=O)NC(=O)[C@H](CO)NC1=O)C(=O)N[C@@H](Cc1ccc(O)cc1)C(=O)N[C@@H](CCCCN)C(=O)N[C@@H](Cc1c[nH]c3ccc(O)cc13)C(=O)NC1(CCN(CC(=O)O)CC1)C(=O)N[C@@H](C(C)C)C(=O)N[C@H](C(=O)NCC(=O)N1CCC[C@H]1C(=O)N[C@H](CO)C(=O)N[C@H](CO)C(=O)N[C@H](CO)C(=O)N[C@@H](CCCCNC(=O)CC[C@H](NC(=O)CC[C@H](NC(=O)CCCCCCCCCCCCCCC(=O)O)C(=O)O)C(=O)O)C(N)=O)CSCC(=O)N[C@@H](Cc1ccc(O)cc1)C(=O)N2C [Compound 30] ({CH2CO}-Y[NMeK]VVSN[Trp(1-CH2CO)]YK[Trp(5-OH)][X7]VCGP[dS][dS][dS]K([γGlu-γGlu-C16 diacid])-NH2; lactam 2-7; thioether N-13)
2,2.23,CC(C)[C@@H]1NC(=O)[C@H](C(C)C)NC(=O)[C@@H]2CCCCNC(=O)Cn3cc(c4ccccc43)C[C@H](NC(=O)[C@H](CC(N)=O)NC(=O)[C@H](CO)NC1=O)C(=O)N[C@@H](Cc1ccc(C(=O)O)cc1)C(=O)N[C@@H](CCCCN)C(=O)N[C@@H](Cc1c[nH]c3ccc(O)cc13)C(=O)NC(C)(C)C(=O)N[C@@H](C(C)C)C(=O)N[C@H](C(=O)NCC(=O)N1CCC[C@H]1C(=O)N[C@H](CO)C(=O)N[C@H](CO)C(=O)N[C@H](CO)C(=O)N[C@@H](CCCCNC(=O)CC[C@H](NC(=O)CC[C@H](NC(=O)CCCCCCCCCCCCCCC(=O)O)C(=O)O)C(=O)O)C(N)=O)CSCC(=O)N[C@@H](Cc1ccc(O)cc1)C(=O)N2C [Compound 25] ({CH2CO}-Y[NMeK]VVSN[Trp(1-CH2CO)][Phe(4-COOH)]K[Trp(5-OH)][Aib]VCGP[dS][dS][dS]K([γGlu-γGlu-C16 diacid])-NH2; lactam 2-7; thioether N-13)

# Same assay, conditions: SPR, hGhR; Table 2 monocyclic peptides; KD calculated from ka and kd; read-out: KD
row,SMILES,Kd [nM]
1,COc1ccc2[nH]cc(C[C@@H]3NC(=O)[C@H](CC(N)=O)NC(=O)[C@H](CO)NC(=O)[C@H](C(C)C)NC(=O)[C@H](C(C)C)NC(=O)[C@H](CCCCNC(=O)CC[C@H](NC(=O)CCCCCc4ccccc4)C(=O)O)N(C)C(=O)[C@H](Cc4ccc(O)cc4)NC(=O)CSC[C@@H](C(=O)NCC(=O)N4CCC[C@H]4C(=O)N[C@H](CO)C(=O)N[C@H](CO)C(=O)N[C@H](CO)C(N)=O)NC(=O)[C@H](C(C)C)NC(=O)C(C)(C)NC(=O)[C@H](Cc4c[nH]c5ccc(O)cc45)NC(=O)[C@H](CCCCN)NC(=O)[C@H](Cc4ccc(C(=O)O)cc4)NC3=O)c2c1 [Compound 57] ({CH2CO}-Y[NMeK]([γGlu-Hexanoyl(6-Ph)])VVSN[Trp(5-OMe)][Phe(4-COOH)]K[Trp(5-OH)][Aib]VCGP[dS][dS][dS]-NH2; thioether N-13),1.25
2,COc1ccc2[nH]cc(C[C@@H]3NC(=O)[C@H](CC(N)=O)NC(=O)[C@H](CO)NC(=O)[C@H](C(C)C)NC(=O)[C@H](C(C)C)NC(=O)[C@H](CCCCNC(=O)CC[C@H](NC(=O)CCCc4ccc(I)cc4)C(=O)O)N(C)C(=O)[C@H](Cc4ccc(C(=O)O)cc4)NC(=O)CSC[C@@H](C(=O)NCC(=O)N4CCC[C@H]4C(=O)N[C@H](CO)C(=O)N[C@H](CO)C(=O)N[C@H](CO)C(N)=O)NC(=O)[C@H](C(C)C)NC(=O)C(C)(C)NC(=O)[C@H](Cc4c[nH]c5ccc(O)cc45)NC(=O)[C@H](CCCCN)NC(=O)[C@H](Cc4ccc(C(=O)O)cc4)NC3=O)c2c1 [Compound 41] ({CH2CO}-[Phe(4-COOH)][NMeK]([γGlu-Butanoyl(4-(4-I-phenyl))])VVSN[Trp(5-OMe)][Phe(4-COOH)]K[Trp(5-OH)][Aib]VCGP[dS][dS][dS]-NH2; thioether N-13),2.63
3,COc1ccc2[nH]cc(C[C@@H]3NC(=O)[C@H](CC(N)=O)NC(=O)[C@H](CO)NC(=O)[C@H](C(C)C)NC(=O)[C@H](C(C)C)NC(=O)[C@H](CCCCNC(=O)CC[C@H](NC(=O)CCCc4ccc(I)cc4)C(=O)O)N(C)C(=O)[C@H](Cc4ccc(C(=O)O)cc4)NC(=O)CSC[C@@H](C(N)=O)NC(=O)[C@H](C(C)C)NC(=O)C4(CCN(CC(=O)O)CC4)NC(=O)[C@H](Cc4c[nH]c5ccc(O)cc45)NC(=O)[C@H](CCCCN)NC(=O)[C@H](Cc4ccc(C(=O)O)cc4)NC3=O)c2c1 [Compound 36] ({CH2CO}-[Phe(4-COOH)][NMeK]([γGlu-Butanoyl(4-(4-I-phenyl))])VVSN[Trp(5-OMe)][Phe(4-COOH)]K[Trp(5-OH)][X7]VC-NH2; thioether N-13),10.8
4,COc1ccc2[nH]cc(C[C@@H]3NC(=O)[C@H](CC(N)=O)NC(=O)[C@H](CO)NC(=O)[C@H](C(C)C)NC(=O)[C@H](C(C)C)NC(=O)[C@H](CCCCNC(=O)CC[C@H](NC(=O)CCCCCc4ccccc4)C(=O)O)N(C)C(=O)[C@H](Cc4ccc(C(=O)O)cc4)NC(=O)CSC[C@@H](C(N)=O)NC(=O)[C@H](C(C)C)NC(=O)C4(CCN(CC(=O)O)CC4)NC(=O)[C@H](Cc4c[nH]c5ccc(O)cc45)NC(=O)[C@H](CCCCN)NC(=O)[C@H](Cc4ccc(C(=O)O)cc4)NC3=O)c2c1 [Compound 38] ({CH2CO}-[Phe(4-COOH)][NMeK]([γGlu-Hexanoyl(6-Ph)])VVSN[Trp(5-OMe)][Phe(4-COOH)]K[Trp(5-OH)][X7]VC-NH2; thioether N-13),2.82
5,COc1ccc2[nH]cc(C[C@@H]3NC(=O)[C@H](CC(N)=O)NC(=O)[C@H](CO)NC(=O)[C@H](C(C)C)NC(=O)[C@H](C(C)C)NC(=O)[C@H](CCCCNC(=O)CC[C@H](NC(=O)CC[C@H](NC(=O)CCCc4ccc(I)cc4)C(=O)O)C(=O)O)N(C)C(=O)[C@H](Cc4ccc(O)cc4)NC(=O)CSC[C@@H](C(N)=O)NC(=O)[C@H](C(C)C)NC(=O)C4(CCN(CC(=O)O)CC4)NC(=O)[C@H](Cc4c[nH]c5ccc(O)cc45)NC(=O)[C@H](CCCCN)NC(=O)[C@H](Cc4ccc(C(=O)O)cc4)NC3=O)c2c1 [Compound 50] ({CH2CO}-Y[NMeK]([γGlu-γGlu-Butanoyl(4-(4-I-phenyl))])VVSN[Trp(5-OMe)][Phe(4-COOH)]K[Trp(5-OH)][X7]VC-NH2; thioether N-13),4.13
